B1: α-ketoglutarate-semialdehyde dehydrogenase from Azospirillum basilensis (AbKGSADH) (enzyme, UniProt Q1JUP4 1-481, looked up)
chain: MANVTYTDTQLLIDGEWVDAASGKTIDVVNPATGKPIGRVAHAGIADLDRALAAAQSGFEAWRKVPAHERAATMRKAAALVRERADAIAQLMTQEQGKPLTEARVEVLSAADIIEWFADEGRRVYGRIVPPRNLGAQQTVVKEPVGPVAAFTPWNFPVNQVVRKLSAALATGCSFLVKAPEETPASPAALLRAFVDAGVPAGVIGLVYGDPAEISSYLIPHPVIRKVTFTGSTPVGKQLASLAGLHMKRATMELGGHAPVIVAEDADVALAVKAAGGAKFRNAGQVCISPTRFLVHNSIRDEFTRALVKHAEGLKVGNGLEEGTTLGALANPRRLTAMASVIDNARKVGASIETGGERIGSEGNFFAPTVIANVPLDADVFNNEPFGPVAAIRGFDKLEEAIAEANRLPFGLAGYAFTRSFANVHLLTQRLEVGMLWINQPATPWPEMPFGGVKDSGYGSEGGPEALEPYLVTKSVTVMAV
notes: α-ketoglutarate-semialdehyde dehydrogenase (KGSADH) of the alternative L-arabinose pathway, Azospirillum brasilense; the limits Met1 and Val481 are those of the domains told for the crystal structure; The vector adds a 6xHis tag and an rTEV protease site at the N-terminus; no cleavage step is described; also called aldehyde dehydrogenase from Azospirillum brasilense; 3-HP producing ALDH; source: …

How the values were obtained:
[1] = molecular target: T1, AbKGSADH (α-ketoglutarate-semialdehyde dehydrogenase) (Azospirillum brasilense, UniProt Q1JUP4); test: X-ray crystal structure, […] Å in Table […] ([…] Å in text); conditions: NAD-binding site between N- and C-terminal domains
T1 construct: gene araE; Met1-Val481 modelled; tetramer about 200 kDa

[2] = molecular target: the molecule itself; test: crystal structure; apo-form and complex with NAD+; space group P4(3)22, two molecules in the asymmetric unit, tetramer generated by crystallographic two-fold symmetry; crystals from 16% PEG 3350, 0.1 M sodium cacodylate pH 6.5, 0.2 M MgCl2, 295 K

| Molecule | X-ray crystal structure, 2.30 Å in Table 1 (2.6 Å in text) [1] | stoichiometry N [2] |
| --- | --- | --- |
| NC(=O)c1ccc[n+]([C@@H]2O[C@H](COP(=O)(O)OP(=O)(O)OC[C@H]3O[C@@H](n4cnc5c(N)ncnc54)[C@H](O)[C@@H]3O)[C@@H](O)[C@H]2O)c1 [NAD^+] | determined the crystal structure of the protein in complex with NAD^+ | – |
| B1 | – | 4 |

From PMC5385487, “Structural insights into the production of 3-hydroxypropionic acid by aldehyde dehydrogenase from Azospirillum brasilense” (Scientific Reports, 2017)
